Results: patent US11969428B2, “Methods and pharmaceutical compositions for treating lymphoid malignancy” (priority 2011, dated 2024)

Key:
Experiment in all cases: Ambit KinomeScan screening
Type in all cases: binding
Details in all cases: CAL-130 10 μM
[1] = target: T1, AMPK-α2 (Homo sapiens, UniProt P54646)
T1 construct: purchased Ambit (KinomeScan screening)
Procedure: (§1) CAL-130 (10 μM) was evaluated for its ability to prevent tagged kinases from interacting with immobilized “bait” ligand (Karaman et al., 2008). Results are reported as “% of control binding”, where lower numbers indicate stronger interactions with the tagged kinase. Values of >35% are considered “no hits”. PI3Kδ had the lowest percentage of control binding at 0.2% followed by PI3Kγ at 3.2% (See Table 1 below). These values indicate a high probability of a potent interaction. 353 kinases were assessed in the screen (Table 2).

[2] = target: T2, CDC2L2 (Homo sapiens, UniProt Q9UQ88)
T2 construct: purchased Ambit (KinomeScan screening)
Procedure: as §1

[3] = target: T3, ERBB4 (Homo sapiens, UniProt Q15303)
T3 construct: unspecified tag ("tagged kinases"); purchased Ambit (KinomeScan screening service)
Procedure: as §1

[4] = target: T4, SYK (Homo sapiens, UniProt P43405)
T4 construct: tag (kind not specified); purchased Ambit (KinomeScan screening service)
Procedure: as §1

[5] = target: T5, TIE1 (Homo sapiens, UniProt P35590)
T5 construct: unspecified tag (tagged kinase); purchased Ambit (KinomeScan screening)
Procedure: as §1

[6] = target: T6, JAK1(JH2domain) (Homo sapiens, UniProt P23458)
T6 construct: JAK1(JH2domain); purchased Ambit (KinomeScan screening)
T6 sequence (P23458 583-855 limits assumed): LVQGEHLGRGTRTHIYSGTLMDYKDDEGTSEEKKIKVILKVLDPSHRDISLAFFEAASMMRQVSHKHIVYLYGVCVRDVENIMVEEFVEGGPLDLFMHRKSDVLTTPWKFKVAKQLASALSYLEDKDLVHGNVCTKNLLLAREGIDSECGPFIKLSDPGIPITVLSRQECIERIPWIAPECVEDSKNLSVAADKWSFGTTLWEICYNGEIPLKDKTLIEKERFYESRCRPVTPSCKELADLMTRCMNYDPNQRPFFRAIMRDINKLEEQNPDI
Procedure: as §1

[7] = target: T7, MRCKB (Homo sapiens, UniProt Q9Y5S2)
T7 construct: unspecified tag ('tagged kinases'); purchased Ambit (KinomeScan screening)
T7 sequence (Q9Y5S2 whole entry): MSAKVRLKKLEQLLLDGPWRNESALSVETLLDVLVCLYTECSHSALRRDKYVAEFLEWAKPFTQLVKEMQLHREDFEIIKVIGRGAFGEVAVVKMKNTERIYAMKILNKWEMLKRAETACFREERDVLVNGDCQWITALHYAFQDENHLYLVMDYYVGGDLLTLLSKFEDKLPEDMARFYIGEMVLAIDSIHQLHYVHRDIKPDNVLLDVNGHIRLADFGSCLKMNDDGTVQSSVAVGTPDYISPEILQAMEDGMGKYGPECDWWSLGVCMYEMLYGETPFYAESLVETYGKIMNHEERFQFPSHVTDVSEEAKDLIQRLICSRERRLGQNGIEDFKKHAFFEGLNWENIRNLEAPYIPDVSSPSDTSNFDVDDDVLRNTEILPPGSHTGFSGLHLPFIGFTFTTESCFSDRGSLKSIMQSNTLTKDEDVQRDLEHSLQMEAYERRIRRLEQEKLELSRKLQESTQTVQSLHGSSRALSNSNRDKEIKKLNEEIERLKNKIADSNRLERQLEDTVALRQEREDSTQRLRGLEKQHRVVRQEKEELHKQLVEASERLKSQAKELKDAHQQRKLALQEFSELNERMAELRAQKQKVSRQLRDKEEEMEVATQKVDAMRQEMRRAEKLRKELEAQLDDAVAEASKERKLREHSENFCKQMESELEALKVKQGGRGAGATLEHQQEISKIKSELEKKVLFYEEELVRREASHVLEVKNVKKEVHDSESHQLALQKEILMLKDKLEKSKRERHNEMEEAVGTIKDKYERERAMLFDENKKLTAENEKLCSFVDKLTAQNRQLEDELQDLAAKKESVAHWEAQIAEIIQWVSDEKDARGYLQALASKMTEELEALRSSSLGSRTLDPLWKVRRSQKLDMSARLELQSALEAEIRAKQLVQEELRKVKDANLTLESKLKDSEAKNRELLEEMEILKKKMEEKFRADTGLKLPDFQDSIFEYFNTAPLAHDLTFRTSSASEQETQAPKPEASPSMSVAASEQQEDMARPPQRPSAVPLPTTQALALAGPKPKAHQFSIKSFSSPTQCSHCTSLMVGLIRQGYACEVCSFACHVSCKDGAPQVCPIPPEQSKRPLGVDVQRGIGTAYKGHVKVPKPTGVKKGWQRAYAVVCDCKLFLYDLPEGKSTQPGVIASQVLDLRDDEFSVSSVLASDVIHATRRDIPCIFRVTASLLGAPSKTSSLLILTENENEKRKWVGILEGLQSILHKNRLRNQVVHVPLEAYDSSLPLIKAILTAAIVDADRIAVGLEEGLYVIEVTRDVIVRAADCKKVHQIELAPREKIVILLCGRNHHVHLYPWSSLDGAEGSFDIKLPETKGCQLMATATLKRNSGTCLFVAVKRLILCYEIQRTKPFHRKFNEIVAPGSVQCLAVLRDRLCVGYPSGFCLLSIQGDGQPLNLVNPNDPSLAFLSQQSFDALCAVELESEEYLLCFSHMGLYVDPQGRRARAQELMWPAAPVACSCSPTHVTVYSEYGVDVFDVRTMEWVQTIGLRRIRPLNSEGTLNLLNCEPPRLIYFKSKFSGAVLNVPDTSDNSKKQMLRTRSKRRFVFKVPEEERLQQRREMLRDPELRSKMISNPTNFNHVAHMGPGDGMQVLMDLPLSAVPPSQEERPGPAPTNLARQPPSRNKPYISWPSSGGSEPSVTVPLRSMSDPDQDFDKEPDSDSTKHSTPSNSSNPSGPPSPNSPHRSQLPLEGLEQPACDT
Procedure: as §1

[8] = target: T8, EGFR(L747-E749DEL, A750P) (Homo sapiens, UniProt P00533, A750P/DEL747-749)
T8 construct: unspecified tag; purchased Ambit (KinomeScan screening service)
Procedure: as §1

[9] = target: T9, ULK1 (Homo sapiens, UniProt O75385)
T9 construct: tag, kind not specified; purchased Ambit (KinomeScan screening service)
Procedure: as §1

[10] = target: T10, MLK2 (Homo sapiens, UniProt Q02779)
T10 construct: unspecified tag ('tagged kinases'); purchased Ambit (KinomeScan screening)
T10 sequence (Q02779 whole entry): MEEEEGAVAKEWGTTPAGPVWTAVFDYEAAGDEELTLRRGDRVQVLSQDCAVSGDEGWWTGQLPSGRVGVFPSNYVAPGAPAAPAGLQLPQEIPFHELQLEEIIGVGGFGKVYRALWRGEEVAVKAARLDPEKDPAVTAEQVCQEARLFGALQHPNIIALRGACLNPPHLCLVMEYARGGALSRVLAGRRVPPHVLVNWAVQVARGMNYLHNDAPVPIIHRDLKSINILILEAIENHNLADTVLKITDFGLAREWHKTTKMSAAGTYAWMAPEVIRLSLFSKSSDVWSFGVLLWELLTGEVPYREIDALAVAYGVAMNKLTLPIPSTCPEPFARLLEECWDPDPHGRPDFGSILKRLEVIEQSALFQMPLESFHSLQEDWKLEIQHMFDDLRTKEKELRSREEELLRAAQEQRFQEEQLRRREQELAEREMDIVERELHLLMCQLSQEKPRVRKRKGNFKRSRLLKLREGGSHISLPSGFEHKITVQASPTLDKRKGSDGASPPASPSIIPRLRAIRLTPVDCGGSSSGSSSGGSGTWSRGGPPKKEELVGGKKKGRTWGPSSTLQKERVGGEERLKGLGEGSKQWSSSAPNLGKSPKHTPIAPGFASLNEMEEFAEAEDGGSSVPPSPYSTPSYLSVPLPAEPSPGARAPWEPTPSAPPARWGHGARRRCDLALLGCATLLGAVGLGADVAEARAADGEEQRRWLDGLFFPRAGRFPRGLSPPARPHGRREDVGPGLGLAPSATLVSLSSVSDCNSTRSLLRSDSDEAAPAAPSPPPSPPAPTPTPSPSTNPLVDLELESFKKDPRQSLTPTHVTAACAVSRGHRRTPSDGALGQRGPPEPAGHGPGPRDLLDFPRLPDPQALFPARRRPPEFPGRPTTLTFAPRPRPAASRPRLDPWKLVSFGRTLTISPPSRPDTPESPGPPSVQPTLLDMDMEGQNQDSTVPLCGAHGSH
Procedure: as §1

[11] = target: T11, PHKG1 (Homo sapiens, UniProt Q16816)
T11 construct: unspecified tag ('tagged kinases'); purchased Ambit (KinomeScan screening)
Procedure: as §1

[12] = target: T12, MELK (Homo sapiens, UniProt Q14680)
T12 construct: purchased Ambit (KinomeScan screening)
T12 sequence (Q14680 whole entry): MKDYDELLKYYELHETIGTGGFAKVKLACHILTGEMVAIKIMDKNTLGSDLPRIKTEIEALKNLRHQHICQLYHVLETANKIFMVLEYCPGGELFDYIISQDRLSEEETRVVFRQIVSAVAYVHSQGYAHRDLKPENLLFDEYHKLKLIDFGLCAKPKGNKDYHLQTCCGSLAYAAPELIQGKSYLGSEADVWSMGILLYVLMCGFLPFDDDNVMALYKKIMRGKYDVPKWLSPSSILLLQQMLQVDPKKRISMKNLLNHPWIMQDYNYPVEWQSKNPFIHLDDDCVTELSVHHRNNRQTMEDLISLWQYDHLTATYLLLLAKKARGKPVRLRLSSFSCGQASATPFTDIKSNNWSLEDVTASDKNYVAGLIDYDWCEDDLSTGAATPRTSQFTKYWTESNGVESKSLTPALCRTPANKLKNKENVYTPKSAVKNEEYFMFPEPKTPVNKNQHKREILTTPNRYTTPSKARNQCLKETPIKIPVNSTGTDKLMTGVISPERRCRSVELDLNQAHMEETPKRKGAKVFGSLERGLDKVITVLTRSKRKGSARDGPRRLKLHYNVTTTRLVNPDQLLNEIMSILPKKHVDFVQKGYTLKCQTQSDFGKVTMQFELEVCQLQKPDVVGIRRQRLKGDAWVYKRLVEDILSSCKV
Procedure: as §1

[13] = target: T13, ABL1(T315I) (Homo sapiens, UniProt P00519, T315I)
T13 construct: unspecified tag ("tagged kinases"); purchased Ambit (KinomeScan screening)
Procedure: as §1

[14] = target: T14, ABL1(Y253F) (Homo sapiens, UniProt P00519, Y253F)
T14 construct: unspecified tag ("tagged kinases"); purchased Ambit (KinomeScan screening)
Procedure: as §1

[15] = target: T15, SIK2 (Homo sapiens, UniProt Q9H0K1)
T15 construct: tag, kind not specified; purchased Ambit (KinomeScan screening service)
Procedure: as §1

[16] = target: T16, KIT (Homo sapiens, UniProt P10721)
T16 construct: purchased Ambit (KinomeScan screening)
Procedure: as §1

[17] = target: T17, DRAK1 (Homo sapiens, UniProt Q9UEE5)
T17 construct: unspecified tag ("tagged kinases"); purchased Ambit (KinomeScan screening service)
Procedure: as §1

[18] = target: T18, PHKG2 (Homo sapiens, UniProt P15735)
T18 construct: unspecified tag ('tagged kinases'); purchased Ambit (KinomeScan screening)
Procedure: as §1

[19] = target: T19, PRKR (Homo sapiens, UniProt P19525)
T19 construct: tag (kind not specified); purchased Ambit (KinomeScan screening service)
Procedure: as §1

[20] = target: T20, EPHB4 (Homo sapiens, UniProt P54760)
T20 construct: purchased Ambit (KinomeScan screening service)
Procedure: as §1

[21] = target: T21, ABL1 (Homo sapiens, UniProt P00519)
T21 construct: unspecified tag ("tagged kinases"); purchased Ambit (KinomeScan screening)
Procedure: as §1

[22] = target: T22, CAMK1 (Homo sapiens, UniProt Q14012)
T22 construct: unspecified tag ("tagged kinases"); purchased Ambit (KinomeScan screening)
T22 sequence (Q14012 whole entry): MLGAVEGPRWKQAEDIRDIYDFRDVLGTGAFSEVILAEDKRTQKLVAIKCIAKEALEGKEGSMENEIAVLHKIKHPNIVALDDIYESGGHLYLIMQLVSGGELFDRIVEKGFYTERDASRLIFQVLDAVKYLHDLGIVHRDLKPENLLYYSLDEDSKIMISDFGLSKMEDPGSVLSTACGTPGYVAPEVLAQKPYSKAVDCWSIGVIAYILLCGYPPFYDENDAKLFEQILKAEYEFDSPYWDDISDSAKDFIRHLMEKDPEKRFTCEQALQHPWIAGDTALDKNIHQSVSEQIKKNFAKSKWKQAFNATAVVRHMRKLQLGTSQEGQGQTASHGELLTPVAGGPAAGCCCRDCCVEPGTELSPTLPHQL
Procedure: as §1

[23] = target: T23, PCTK3 (Homo sapiens, UniProt Q07002)
T23 construct: unspecified tag ('tagged kinases'); purchased Ambit (KinomeScan screening)
Procedure: as §1

[24] = target: T24, PAK4 (Homo sapiens, UniProt O96013)
T24 construct: tag (kind not specified); purchased Ambit (KinomeScan screening service)
Procedure: as §1

[25] = target: T25, BRSK2 (Homo sapiens, UniProt Q8IWQ3)
T25 construct: unspecified tag ("tagged kinases"); purchased Ambit (KinomeScan screening)
Procedure: as §1

[26] = target: T26, FLT3(K663Q) (Homo sapiens, UniProt P36888, K663Q)
T26 construct: unspecified tag; purchased Ambit (KinomeScan screening service)
Procedure: as §1

[27] = target: T27, DMPK2 (Homo sapiens, UniProt Q6DT37)
T27 construct: unspecified tag ("tagged kinases"); purchased Ambit (KinomeScan screening service)
Procedure: as §1

[28] = target: T28, EPHA8 (Homo sapiens, UniProt P29322)
T28 construct: purchased Ambit (KinomeScan screening service)
Procedure: as §1

[29] = target: T29, ERK8 (Homo sapiens, UniProt Q8TD08)
T29 construct: unspecified tag ("tagged kinases"); purchased Ambit (KinomeScan screening service)
T29 sequence (Q8TD08 whole entry): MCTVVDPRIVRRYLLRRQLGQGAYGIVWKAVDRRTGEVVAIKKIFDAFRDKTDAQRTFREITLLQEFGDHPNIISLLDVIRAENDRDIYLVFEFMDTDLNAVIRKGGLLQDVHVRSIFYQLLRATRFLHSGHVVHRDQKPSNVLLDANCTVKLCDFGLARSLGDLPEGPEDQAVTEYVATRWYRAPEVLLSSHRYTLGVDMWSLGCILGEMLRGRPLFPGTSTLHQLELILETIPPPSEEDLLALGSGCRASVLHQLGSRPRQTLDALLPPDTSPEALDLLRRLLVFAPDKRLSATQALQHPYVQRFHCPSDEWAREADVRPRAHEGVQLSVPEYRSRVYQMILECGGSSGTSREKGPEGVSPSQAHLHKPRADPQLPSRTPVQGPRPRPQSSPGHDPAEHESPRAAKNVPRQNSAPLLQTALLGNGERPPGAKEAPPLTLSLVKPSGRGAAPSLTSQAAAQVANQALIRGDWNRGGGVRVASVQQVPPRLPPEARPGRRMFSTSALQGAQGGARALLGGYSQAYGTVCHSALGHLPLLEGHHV
Procedure: as §1

[30] = target: T30, RET(V804M) (Homo sapiens, UniProt P07949, V804M)
T30 construct: tag (kind not specified); purchased Ambit (KinomeScan screening service)
Procedure: as §1

[31] = target: T31, DYRK2 (Homo sapiens, UniProt Q92630)
T31 construct: unspecified tag; purchased Ambit (KinomeScan screening service)
Procedure: as §1

[32] = target: T32, MYO3B (Homo sapiens, UniProt Q8WXR4)
T32 construct: unspecified tag; purchased Ambit (KinomeScan screening panel)
Procedure: as §1

[33] = target: T33, ITK (Homo sapiens, UniProt Q08881)
T33 construct: purchased Ambit (KinomeScan screening)
Procedure: as §1

[34] = target: T34, ACVR2B (Homo sapiens, UniProt Q13705)
T34 construct: purchased Ambit (KinomeScan screening)
Procedure: as §1

[35] = target: T35, TNK1 (Homo sapiens, UniProt Q13470)
T35 construct: unspecified tag (tagged kinase); purchased Ambit (KinomeScan screening)
Procedure: as §1

[36] = target: T36, PFTK1 (Homo sapiens, UniProt O94921)
T36 construct: unspecified tag ('tagged kinases'); purchased Ambit (KinomeScan screening)
Procedure: as §1

Measured: Percent of Control Binding

T1 sequence (P54646 whole entry): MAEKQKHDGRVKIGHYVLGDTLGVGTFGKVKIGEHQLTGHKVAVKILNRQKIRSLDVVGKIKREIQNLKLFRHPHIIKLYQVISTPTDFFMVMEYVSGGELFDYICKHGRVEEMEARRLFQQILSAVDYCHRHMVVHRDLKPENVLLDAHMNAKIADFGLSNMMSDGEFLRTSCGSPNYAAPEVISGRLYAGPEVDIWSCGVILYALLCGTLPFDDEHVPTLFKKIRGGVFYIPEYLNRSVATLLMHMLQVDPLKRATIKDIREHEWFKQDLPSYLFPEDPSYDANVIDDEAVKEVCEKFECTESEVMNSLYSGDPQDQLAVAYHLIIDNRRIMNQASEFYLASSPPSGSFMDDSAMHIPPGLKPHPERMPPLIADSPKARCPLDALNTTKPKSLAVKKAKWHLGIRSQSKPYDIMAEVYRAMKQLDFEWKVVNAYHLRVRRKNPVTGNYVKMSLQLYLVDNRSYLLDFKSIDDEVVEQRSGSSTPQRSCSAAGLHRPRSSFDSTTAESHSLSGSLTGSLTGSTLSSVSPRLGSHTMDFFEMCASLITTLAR

Cc1ccccc1-n1c(C(C)Nc2nc(N)nc3nc[nH]c23)nc2cccc(C)c2c1=O (stereo not drawn) [CAL-130]
100%: all assays above
